Experimental data published in publication PMC11754443, “Synthesis, H2S releasing properties, antiviral and antioxidant activities and acute cardiac effects of nucleoside 5′-dithioacetates” (Scientific Reports, 2025).
Several values for one entry are separate records, joined by “and”; a condition that tells them apart may be missing. Equal values may be shown once. Read-outs that look alike come from different tables or passages of the source.

What was measured:
[1] = DPPH radical scavenging assay; details: for DPPH inhibition ratio (IR) after 30-min incubation / DPPH inhibition ratio (IR) immediately: 0.5 mM
Protocol: DPPH is a stable free radical with a deep violet color that changes to yellow when neutralized by an electron or hydrogen radical, indicating the antioxidant activity of the sample being tested. The DPPH radical scavenging abilities were investigated following the method outlined by Shimamura et al., with minor adjustments. In this study, a cardiovascular tissue homogenate was used to induce H2S release from the dithioacetate derivatives 22 and 24, as well as GYY4137. A mixed solution of 1.2 mL of methanol and 800 µL of 0.1 M Tris-HCl buffer (pH 7.4) served as the blank. 1 mL DPPH solution was added to a mixture of methanol and 0.1 M Tris-HCl buffer (200:800 µL). After mixing, the absorbance was recorded at 517 nm on a UV-1600 PC VWR spectrophotometer (VWR, China). To avoid any potential interference from the heart extract in the assay, we measured the absorbance after adding different volumes of the extract into the mixture. These measurements were taken both immediately and after 30 min of incubation.
The DPPH antioxidant assay was performed according to the following procedures. 1 mL of DPPH solution was added to a mixture of 200 µL of the methanolic sample solution and 800 µL of 0.1 M Tris-HCl buffer (pH = 7.4). For the groups containing the extract, the extract was introduced into a mixture of the sample solution in PBS buffer, 0.1 M Tris-HCl buffer, and DPPH (200:800:1000 µL). Considering that GYY4137 produces H2S upon hydrolysis, it was introduced last following the addition of the extract into a solution of PBS buffer, 0.1 M Tris-HCl buffer, and DPPH maintained at the same ratio. The same protocol was employed for NaHS without the addition of the extract. After mixing, the absorbance was promptly recorded, after which the solutions were incubated in the dark at room temperature for 30 min before the absorbance was measured again. The test samples were prepared and assayed at varying concentrations using a 2-fold serial dilution method, starting from a concentration of 2 mM. Each investigation was performed in triplicate, and the antioxidant activity was based on the absorbance recorded at 517 nm. Ascorbic acid (AA), GYY4137, and NaHS served as positive controls, while the unmodified nucleosides were used as reference compounds.
The inhibition ratio (IR) was calculated as follows: [drawing 1] where Ac is the absorbance when methanol is added instead of the sample and As is the absorbance when the testing sample solution is added.
The antioxidant capacity was expressed as the concentration needed to achieve a 50% inhibition of the free radical (IC50). The IC50 values were calculated by plotting the percent of inhibition as a function of sample concentration.

[2] = H2S release detected with amperometric H2S-specific sensor in DMEM; details: DMEM with 10% FBS, 0.28-0.32 mM compound
Protocol: The H2S-donating ability of compound 22, 24, 27, 29 and 30 (0.5 mg dissolved in 0.1 mL of DMSO) was detected in Dulbecco’s modified Eagle’s medium (DMEM) (4.9 mL) supplemented with 10% fetal bovine serum and 1% penicillin-streptomycin. The final concentrations were 0.31 mM for compound 22, 0.29 mM for compound 24, 0.28 mM for compound 27, 0.32 mM for compound 29 and 0.32 mM for compound 30, respectively. The released H2S was detected by an amperometric, H2S specific sensor (ISO-H2S-100, World Precision Instruments, Saratosa, FL, USA) connected to a WPI TBR 1025 One-Channel Free Radical Analyzer. The sensor was set to 10 nA range and poise voltage to + 150 mV. Before the measurements the sensor was polarized in phosphate buffered saline (PBS) for 12 h[19]. The H2S-release of NaHS was detected in distilled water (0.1 mg in 5 mL of H2O; 0.36 mM) and the H2S-release of GYY4137 was measured in DMEM (0.5 mg of GYY4137 in 5 mL of medium; 0.27 mM).

[3] = tested on: SARS-CoV-2 (strain hCoV-19/Czech Republic/NRL_6632_2/2020); assay: Anti-SARS-CoV-2 cytopathic-effect-based assay in Calu-3 cells (CellTiter-Glo); type: cell-based; details: compound added 2 h after infection, MOI 0.3, read after two days, read-out: EC50 ± SE, anti-SARS-CoV-2 activity
Calu-3 cells = assay: Cytotoxicity in Calu-3 cells (CellTiter-Glo); type: cell-based, human; details: Calu-3 cells, no virus, two days incubation; read-out: CC50 ± SE, cytotoxicity in Calu-3 cells
Protocol: Cytotoxicity was evaluated by incubating the same two-fold serial dilutions of each compound with Calu-3 cells as above in the absence of the virus. Following two days incubation at 37 °C in 5% CO2, the cell viability was determined as above. The compound concentrations resulting in 50% reduction of cell viability (CC50) were calculated from plots of percentage of luminescence versus log10 drug concentration as above. Remdesivir was used as control in both assays.

SARS-CoV-2 = type: cell-based; details: medium of Calu-3 cells infected 2 days at the highest compound concentration, plaque assay in Vero E6 cells
[4] = tested on: anaesthetized Sprague-Dawley rats; assay: Cardiac effects by ECG and echocardiography in anaesthetized rats; type: in vivo, rat; details: for Ejection Fraction / Heart rate / PR interval / QT interval / Stroke Volume: anaesthetized SD rats, 30 s after administration, mean ± SD
Protocol: The animals received humane care, and all experimental procedures were carried out in accordance with the “Principles of Laboratory Animal Care” by EU Directive 2010/63/EU. All experimental protocols were approved by the local Ethics Committee of University of Debrecen (25/2023/DEMÁB). Animal experiments are reported in compliance with the ARRIVE guidelines. Anesthesia was carried out using ketamine/xylazine mixture (100/10 mg/kg, i.m.). The chest was shaved and the animal was placed onto a heated pad (VisualSonics SR200, VisualSonics, Amsterdam, The Netherlands). The lateral tail vein was cannulated using a heparinized 26G i.v. cannula (BD Neoflon, BD Medical, NJ, USA). B-mode and M-mode echocardiography was carried out before and 30 s after the intravenous administration of the compounds. A high-resolution ultrasound machine (Vevo 3100 Imaging Station, VisualSonics, Amsterdam, The Netherlands) equipped with a […] transducer (MX201) was used for assessing cardiac parameters. Traces were obtained from the parasternal long axis view (PLAX). A B-mode video and an M-mode trace was recorded, and the following parameters were then offline analysed: left ventricle (LV) end-systolic and end-diastolic volume (LVESV, LVEDV, respectively) fractional shortening (FS) and ejection fraction (EF) and stroke volume (SV).
A 3-channel ECG was continuously recorded during the experiments (Vevo monitor ECG, VisualSonics, Amsterdam, The Netherlands). On the recorded ECG data, RR, PR and QT intervals, and heart rate (HR) were determined before and 30 s after the administration of the drugs, and 6 consecutive cardiac cycles were averaged for each parameter.
Statistical analyses for the in vivo studies were carried out using the GraphPad Prism 9.0 software (GraphPad Software, San Diego, CA, USA). Data distribution was assessed by the Shapiro-Wilk normality test, and paired t-test were used to determine the differences between the baseline (drug free) and endpoint (treated) parameters in each group. A multiple comparison was also carried out between the treatment groups by using one-way ANOVA with Tukey multiple comparison test. Data was shown as mean ± SD, and differences with p < 0.05 were considered significant.

[5] = ABTS radical cation decolorization assay; details: 0.1 mM, compared with parent dithioacetates 22 and 24
Protocol: The ABTS decolorization assay was carried out as described by Szoke et al.[54] Briefly, the method is based on the scavenging of (2,2′-azinobis-(3-ethylbenzothiazoline-6-sulfonic acid) ABTS^•+ radical cation. The decolorization caused by the compound is compared to the decolorization induced by Trolox (6-hydroxy-2,5,7,8-tetramethylchroman-2-carboxylic acid), and expressed as Trolox equivalent antioxidant capacity (TEAC) value. TEAC values were expressed as Trolox equivalents calculated from (Ai − Af)antioxidant/(Ai − Af) Trolox at 0.1 mM concentrations. Briefly, a total of 10 µL sample, 20 µL of Myoglobin Working Solution, and 150 µL of ABTS Substrate Working Solution were mixed and incubated for 5 min at room temperature. At the end of incubation […] of Stop Solution was added and endpoint absorbance at 405 nm was read. All experiments were performed in triplicates and repeated three times.

[6] = after 30 min incubation, with 20 µL homogenized rat heart extract, read-out: DPPH IC50 30 min, + extract (20 µL)
[7] = after 30 min incubation, without extract, read-out: DPPH IC50 30 min
[8] = measured immediately, with 20 µL homogenized rat heart extract, read-out: DPPH IC50 immediately, + extract (20 µL)
[9] = measured immediately, without extract, read-out: DPPH IC50 immediately
[10] = anaesthetized rats, 2 mg/kg i.v.

Compound | persistence of measurable H2S release [2] | time at which H2S gas release reached the maximum level [2] [min] | IC50 [1, 7] [µM] | IC50 [1, 9] [µM] | EC50 [3] [µM] | CC50 (Calu-3 cells) [µM] | SARS-CoV-2 titer reduction (SARS-CoV-2) [log10 PFU/mL] | also measured
C1COCCN1.COc1ccc(P(=S)(S)N2CCOCC2)cc1 (stereo not drawn) [GYY4137, reference compound] | – | – | – | – | – | – | – | DPPH inhibition ratio (IR) after 30-min incubation ([1]; after 30 min incubation): 10.63%; DPPH inhibition ratio (IR) immediately ([1]; immediately): 5.95%
S-(Uridine-5′-yl)-dithioacetic acid [Compound 22] | remained at a measurable level even after two hours | 10 to 20 | 3630 | 5560 | > 1000 | > 1000 | 0.02 | IC50 [1, 6]: 1570 µM; IC50 [1, 8]: 3520 µM; Ejection Fraction ([4]; 2 mg/kg i.v.): 68.70±4.226%; Heart rate ([4]; 2 mg/kg i.v.): 172.3±19.45 bpm; PR interval ([4]; 2 mg/kg i.v.): 51.2 ± 7.530 ms; QT interval ([4]; 2 mg/kg i.v.): 122.2 ± 10.73 ms; Stroke Volume ([4]; 2 mg/kg i.v.): 344.6 ± 81.32 µL; heart block (in words) [4, 10]: None of the new compounds (22, 24, and 34) induced complete heart block or pauses
S-(Adenosine-5′-yl)-dithioacetic acid [Compound 24] | remained at a measurable level even after two hours | 10 to 20 | 2580 | 3540 | 173 ± 24 | ~1000 | 0 | IC50 [1, 6]: 1620 µM; IC50 [1, 8]: 2660 µM; Ejection Fraction ([4]; 2 mg/kg i.v.): 80.70±5.230%; Heart rate ([4]; 2 mg/kg i.v.): 120.5±29.19 bpm; PR interval ([4]; 2 mg/kg i.v.): 47.00 ± 3.742 ms; QT interval ([4]; 2 mg/kg i.v.): 172.3 ± 46.85 ms; Stroke Volume ([4]; 2 mg/kg i.v.): 416.5 ± 93.56 µL; duration of negative chronotropic action compared with adenosine [4, 10]: their duration of action was longer; heart block (in words) [4, 10]: None of the new compounds (22, 24, and 34) induced complete heart block or pauses
Nc1ncnc2c1ncn2[C@@H]1O[C@H](CO)[C@@H](O)[C@H]1O [Adenosine, reference compound] | – | – | – | – | – | – | – | Ejection Fraction ([4]; 2 mg/kg i.v.): 71.25±2.958%; Heart rate ([4]; 2 mg/kg i.v.): 67.38±16.46 bpm; PR interval ([4]; 2 mg/kg i.v.): 59.50 ± 10.63 ms; QT interval ([4]; 2 mg/kg i.v.): 195.0 ± 31.69 ms; Stroke Volume ([4]; 2 mg/kg i.v.): 396.8 ± 130.4 µL; time within which negative chronotropic effect dissipated [4, 10]: approximately 60 s; heart block (in words) ([4]; rat, in vivo, iv, 2 mg/kg): induced heart block
S-(Cytidine-5′-yl)-dithioacetic acid [Compound 29] | remained at a measurable level even after two hours | 10 to 20 | – | – | > 1000 | > 1000 | 0.13 | –
[Na+].[SH-] [NaHS, sodium hydrosulfide, reference compound] | – | – | – | – | – | – | – | DPPH inhibition ratio (IR) after 30-min incubation ([1]; after 30 min incubation): 90% and 90.03%; DPPH inhibition ratio (IR) immediately ([1]; immediately): 56.14%
O=c1ccn([C@@H]2O[C@H](CS)[C@@H](O)[C@H]2O)c(=O)[nH]1 [Compound 32, 5′-Thiouridine] | – | – | 570 | 710 | – | – | – | DPPH inhibition ratio after 30 min incubation ([1]; 2 mM, after 30 min incubation): 90%; DPPH inhibition ratio immediately ([1]; 2 mM, immediately): 70–80%; DPPH activity lower than that of ascorbic acid ([1]; from IC50 values, relative to ascorbic acid): 10 times; ABTS antioxidant activity (Trolox equivalents), in words [5]: higher antioxidant activity than the parent dithioacetate derivatives
S-(Guanosine-5′-yl)-dithioacetic acid [Compound 27] | remained at a measurable level even after two hours | 10 to 20 | – | – | 158 ± 34 | > 1000 | 0.38 | –
O=c1ccn([C@@H]2O[C@H](CO)[C@@H](O)[C@H]2O)c(=O)[nH]1 [Uridine, reference compound] | – | – | > 100000 | > 100000 | – | – | – | –
S-(Thymidine-5′-yl)-dithioacetic acid [Compound 30] | remained at a measurable level even after two hours | 10 to 20 | – | – | 621 ± 181 | 764 ± 82 | 0.01 | –
O=C1O[C@H]([C@@H](O)CO)C(O)=C1O [Ascorbic acid (AA), Ascorbic acid, reference compound] | – | – | 60 | 60 | – | – | – | DPPH inhibition ratio (IR) after 30-min incubation ([1]; after 30 min incubation): 97.13%; DPPH inhibition ratio (IR) immediately ([1]; immediately): 97.25%
